Measurements: US20100261699A1, “N-PYRAZOLE-2-PYRIDINE CARBOXAMIDE DERIVATIVE” (Banyu Pharmaceutical Co., Ltd., priority 2007, published 2010)
pEC50: −log10 of the molar value.

Target: T1, recombinant human liver GK (Homo sapiens, UniProt P35557)
T1 construct: made in house; host or cells: E. coli
T1 sequence (P35557 1-466 isoform P35557-2): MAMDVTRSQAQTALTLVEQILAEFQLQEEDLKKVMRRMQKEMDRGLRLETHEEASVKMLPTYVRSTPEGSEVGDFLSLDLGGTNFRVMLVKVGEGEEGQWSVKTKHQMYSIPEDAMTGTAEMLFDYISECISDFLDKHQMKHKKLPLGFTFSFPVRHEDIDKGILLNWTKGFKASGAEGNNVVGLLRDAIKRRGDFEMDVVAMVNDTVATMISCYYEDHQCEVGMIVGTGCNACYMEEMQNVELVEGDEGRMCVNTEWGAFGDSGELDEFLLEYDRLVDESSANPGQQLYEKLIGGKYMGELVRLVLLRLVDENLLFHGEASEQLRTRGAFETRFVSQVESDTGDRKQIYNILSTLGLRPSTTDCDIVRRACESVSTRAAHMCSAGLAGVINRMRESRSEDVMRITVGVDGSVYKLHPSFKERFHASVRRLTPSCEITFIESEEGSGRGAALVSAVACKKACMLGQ
Assay: Glucokinase-activating effect (Thio-NADH production via G6PDH-coupled assay)
Assay type: biochemical
Settings: final glucose concentration 2.5 mM, 30° C.; for Emax: OD level of DMSO control taken as 100%
Protocol: The excellent glucokinase-activating effect of the compound represented by the Formula (I) can be determined by a method described in references (e.g., Diabetes, Vol. 45, pp. 1671-1677, 1996, etc.) or by a method based on the same.
The glucokinase activity is determined not by directly measuring glucose-6-phosphate, but by measuring the level of Thio-NADH produced when a reporter enzyme, glucose-6-phosphate dehydrogenase, produces phosphogluconolactone from glucose-6-phosphate.
A recombinant human liver GK used in this assay was expressed in E. coli as a FLAG fusion protein, and then purified by ANTIFLAG M2 AFFIMTY GEL (Sigma).
The assay was carried out using a flat-bottom 96-well plate at 30° C. First, 69 μl of assay buffer (25 mM Hepes Buffer:pH=7.2, 2 mM MgCl2, 1 mM ATP, 0.5 mM TNAD, 1 mM dithiothreitol) was dispensed, and 1 μl of DMSO solution of the compound or DMSO as a control was added thereto. Subsequently, 20 μl of enzyme mixture (FLAG-GK, 20 U/ml G6PDH) that had been cooled in ice was dispensed, and 10 μl of 25 mM glucose, a substrate, was added thereto to initiate reaction (final glucose concentration=2.5 mM).
After the start of the reaction, an increase in the absorbance at 405 nm was measured for 12 minutes at 30 second intervals, and the increment for the first 5 minutes was used for evaluation of the compound. FLAG-GK was added so that the increment of absorbance in 5 minutes in the presence of 1% DMSO was from 0.04 to 0.06.
Taking the OD level of the DMSO control as 100%, the OD level of the test compound at different concentrations was determined From the OD level at each concentration, Emax (%) and EC50 (μM) were calculated and used as an index of the GK-activating ability of the compound.

SMILES	Emax	pEC50
CN(C)CCOc1ccc(Sc2ccc(Sc3nncn3C)nc2C(=O)Nc2ccn(C)n2)cc1 [Example 1, 3-({4-[2-(dimethylamino)ethoxy]phenyl}thio)-N-(1-methyl-1H-pyrazol-3-yl)-6-[(4-methyl-4H-1,2,4-triazol-3-yl)thio]pyridine-2-carboxamide]	890%	6.92
CCN(CC)CCOc1ccc(Sc2ccc(Sc3nncn3C)nc2C(=O)Nc2ccn(C)n2)cc1 [Example 2]		6.70
Cn1ccc(NC(=O)c2nc(Sc3nncn3C)ccc2Sc2ccc(OCCN3CCCC3)cc2)n1 [Example 3]		7.10
CN(C)CCOc1ccc(Sc2ccc(Sc3nncn3C)nc2C(=O)Nc2ccn(C)n2)cn1 [Example 9]	880%	6.74

Now from value to molecule:

Emax	pEC50	SMILES
	7.15	CN1CC(Oc2ccc(Sc3ccc(Sc4nncn4C)nc3C(=O)Nc3ccn(C)n3)cc2)C1 [Example 4, 3-({4-[(1-methylazetidin-3-yl)oxy]phenyl}thio)-N-(1-methyl-1H-pyrazol-3-yl)-6-[(4-methyl-4H-1,2,4-triazol-3-yl)thio]pyridine-2-carboxamide]
	6.92	CCN1CC(Oc2ccc(Sc3ccc(Sc4nncn4C)nc3C(=O)Nc3ccn(C)n3)cc2)C1 [Example 5]
	6.82	CC(C)N1CC(Oc2ccc(Sc3ccc(Sc4nncn4C)nc3C(=O)Nc3ccn(C)n3)cc2)C1 [Example 6]
930%	7.22	CCN1CC(COc2ccc(Sc3ccc(Sc4nncn4C)nc3C(=O)Nc3ccn(C)n3)cc2)C1 [Example 7, 3-({4-[(1-ethylazetidin-3-yl)methoxy]phenyl}thio)-N-(1-methyl-1H-pyrazol-3-yl)-6-[(4-methyl-4H-1,2,4-triazol-3-yl)thio]pyridine-2-carboxamide]
960%	7.10	CC(C)N1CC(COc2ccc(Sc3ccc(Sc4nncn4C)nc3C(=O)Nc3ccn(C)n3)cc2)C1 [Example 8, 3-({4-[(1-isopropylazetidin-3-yl)methoxy]phenyl}thio)-N-(1-methyl-1H-pyrazol-3-yl)-6-[(4-methyl-4H-1,2,4-triazol-3-yl)thio]pyridine-2-carboxamide]
